From article PMC12728616, “Regioselective Glycosylation of Fluorine-18-Labeled Sorbitol for Enhanced Bacterial Detection In Vivo Using PET” (JACS Au, 2025)

Tests used:
[1] = test system: S. aureus; design: method as in previously reported S. aureus sensitive PET tracers; conditions: S. aureus infection; ref previously reported S. aureus sensitive PET tracers; cited from earlier work
[2] = test system: Gram-positive bacteria; assay: In vitro uptake of 18F-tracers across the Gram-positive panel; type: cell-based; conditions: panel of Gram-positive pathogens; FLT/FCT except E. faecalis; FMT versus FNT
Description: (§1) In vitro evaluation of ^18F-tracers was conducted according to our established procedure. Briefly, bacteria were incubated overnight at 37 °C, subcultured into a fresh medium at an initial OD600 of 0.05, and then allowed to reach the mid log phase (OD600 ∼ 0.4). The cultures were subsequently incubated with ^18F-tracers (final concentration: 0.1 MBq/mL) at 37 °C for 90 min. Subsequently, 300 μL aliquots of these cultures were centrifuged at 13,200 rpm for 6 min. The resulting pellets were washed with 300 μL of phosphate-buffered saline (PBS). The radioactivity of the pellets and supernatants was measured using a gamma counter. Uptake values were normalized to colony-forming units (CFUs).

[3] = test system: K. pneumoniae; assay: In vitro uptake of 18F-tracers by bacteria; type: cell-based, Klebsiella pneumoniae
Description: as §1

[4] = in vivo; cited from earlier work
[5] = test system: Enterococcus faecalis; assay: In vitro uptake of 18F-tracers by bacteria; type: cell-based; conditions: E. faecalis; 37 °C, 90 min
Description: as §1

[6] = Dynamic PET/CT and ex vivo biodistribution in uninfected mice; conditions: uninfected mice
Description: To assess the effect of [^18F]-FDS glycosylation on tissue uptake in vivo, we performed dynamic PET/CT scans for 90 min after the intravenous injection of [^18F]-FNT, [^18F]-FMT, and [^18F]-FDS in uninfected mice, followed by ex vivo analysis.
(§2) μPET/CT imaging was conducted using a nanoScan μPET/CT instrument (PET123S/CT1512, Mediso). Mice were anesthetized with 2% isoflurane/oxygen for intravenous administration of ^18F-tracers (∼5 MBq in 150 μL) via tail vein and maintained during data acquisition. PET data of uninfected mice were acquired in the list mode for 90 min, starting immediately after ^18F-tracer administration, followed by a CT scan. The PET data were reconstructed into three-dimensional volumes and coregistered with CT images using manufacturer-provided software in 53 dynamic frames (15 × 2 s, 6 × 5 s, 6 × 10 s, 4 × 30 s, 6 × 30 s, and 16 × 300 s). PET data of infected mice were acquired for 20 min, starting at 70 min postinjection of ^18F-tracer (mid time 80 min), followed by a CT scan. The list mode PET data were reconstructed into three-dimensional volumes in a single static frame. All PET scans were corrected for ^18F decay, dead time, and random coincidences and reconstructed into a 160 × 160 × 184 matrix with voxel size 0.8 mm using a three-dimensional ordered subject expectation maximization (OSEM) algorithm (40 iterations, 1 subset). Both attenuation and scatter corrections were applied to PET reconstructions using the coregistered CT. ROIs were drawn manually around the brain, lungs, liver, kidney, and urinary bladder using Amide software to generate image-derived TACs. For the estimation of blood pool radioactivity over time, ROIs were drawn on the left atrium. To estimate the plasma half-life of tracers, the TAC of the blood pool was fitted to a two-compartment model using a biexponential decay function: C t(t) = Ae ^–αt + Be ^ ‑βt , where C t(t) is the tracer concentration (% IDcc^–1) at time (t), A and B are the intercepts, and α and β are the distribution and elimination rate constants, respectively. , Quantitative uptake values are expressed as % IDcc^–1, representing the percent of the total injected dose per cubic centimeter. For the S. aureus myositis model, identical volume ROIs were drawn corresponding to the peak uptake of [^18F]-FNT at the live S. aureus inoculated site and heat-killed S. aureus inoculated site, respectively.

[7] = test system: K. pneumoniae; assay: PET/CT in K. pneumoniae pneumonia murine model; type: in vivo, mice
Description: Given promising low background signals in uninfected mice, we further evaluated [^18F]-FNT and [^18F]-FMT in two different clinically relevant mouse models of lung and muscle infections. […] PET scanning was performed at 24 h postintranasal bacterial installation (Figure A). […] The ROI-derived infected/uninfected lung ratios of [^18F]-FDS, [^18F]-FMT, and [^18F]-FNT were approximately 3.2, 6.1, and 5.9-fold, respectively (Figure C), also supported by the ex vivo infected/uninfected lung ratio of [^18F]-FDS (∼1.6-fold), [^18F]-FMT (∼5.7-fold), and [^18F]-FNT (∼5.7-fold) (Figure D). Post-PET scans, infected lungs were harvested to determine colony forming units (CFUs). No significant differences in bacterial counts were observed among [^18F]-FDS, [^18F]-FMT, and [^18F]-FNT (Figure E). To confirm radiotracer specificity, we also evaluated mice inoculated with 10x heat-killed K. pneumoniae into lungs (Supporting Information Figure S5A–C).
(§3) All animal procedures were conducted in accordance with UCSF institutional guidelines and were approved by the Institutional Animal Care and Use Committee (IACUC). Female CBA/J mice (9 and 11 weeks old) were used for the study. Pulmonary infection and bacterial myositis models were established based on previously published protocols. , For pulmonary infection, 50 μL of K. pneumoniae (5 × 10^6 CFU) or 10× heat-killed K. pneumoniae were administered intranasally under anesthesia 24 h prior to imaging using PET. After PET scans, infected lungs were homogenized in PBS and plated on LB agar. Plates were incubated overnight at 37 °C to quantify the bacterial burden. For the bacterial myositis model, mice were intramuscularly injected with either 1 × 10^6 CFUs of live S. aureus (MSSA or MRSA) or 1 × 10^7 CFUs of heat-killed bacteria (50 μL) into the left and right deltoid muscles, respectively, 10 h prior to imaging using PET. Immediately following all imaging studies, target tissues were harvested, and radioactivity was measured using a gamma counter.
as §2, with “For the S. aureus myositis model, identical volume ROIs were drawn corresponding to the peak uptake of [^18F]-FNT at the live S. aureus inoculated site and heat-killed S. aureus inoculated site, respectively.” left out

[8] = test system: MRSA; assay: PET/CT in MRSA myositis murine model; type: in vivo, mice; conditions: MRSA myositis
Description: We next compared [^18F]-FNT and [^18F]-FMT PET in a S. aureus myositis model. […] To compare the in vivo detection sensitivity of [^18F]-FNT and [^18F]-FMT in a MRSA myositis model, we injected the left deltoid with live MRSA and the right deltoid with 10x heat-killed MRSA, respectively (Figure B).
as §3, with “For the bacterial myositis model, mice were intramuscularly injected with either 1 × 10^6 CFUs of live S. aureus (MSSA or MRSA) or 1 × 10^7 CFUs of heat-killed bacteria (50 μL) into the left and right deltoid muscles, respectively, 10 h prior to imaging using PET.” left out
as §2

[9] = blood pool TAC, two-compartment fit

With `Nc1ccc(C(=O)O)c([18F])c1` [2-[18F]F-PABA] as the compound, how does the target-to-nontarget ratio [1] read?
Its target-to-nontarget ratio is about 8 fold.

For `[11CH3][C@@H](N)C(=O)O` [D-[3-11C]Ala], which target-to-nontarget ratio [1] is on record?
Its target-to-nontarget ratio is about 4 fold.

Which target-to-nontarget ratio [1] does the source give for `N[C@H](CC[11C](N)=O)C(=O)O` [D-[5-11C]-Gln] here?
The target-to-nontarget ratio was about 2.3 fold.

For `[11CH3]SCC[C@@H](N)C(=O)O` [D-[11C]Met], which target-to-nontarget ratio [1] is on record?
Its target-to-nontarget ratio is about 10 fold.

With `[2H]C([2H])([18F])[C@@]([2H])(N)C(=O)O` [D-[18F]FAla-d3] as the compound, how does the target-to-nontarget ratio [1] read?
The target-to-nontarget ratio was about 2.4 fold.

With `N[C@H](C[18F])C(=O)O` [D-[18F]FAla] as the compound, how does the target-to-nontarget ratio [1] read?
The target-to-nontarget ratio was about 2 fold.

For `Nc1ccc([11C](=O)O)cc1` [[11C]PABA], which target-to-nontarget ratio [1] is on record?
The target-to-nontarget ratio was about 28 fold.

Which “in vitro uptake in Gram-positive bacteria” value [2] does the source give for `OC[C@@H](O)[C@@H](O[C@@H]1O[C@H](CO)[C@@H](O)[C@H](O)[C@H]1O)[C@H](O)[C@@H]([18F])CO` [[18F]FCT, 2-deoxy-2-[18F]fluoro-D-cellobiotol] here?
Its value is “negligible uptake”.

And the in vitro uptake [3]?
Its in vitro uptake is “poorly taken up”.

With `OC[C@H]1OC(O)[C@H]([18F])[C@@H](O)[C@@H]1O` (stereo partly drawn) [[18F]FDG] as the compound, how does the known effective dose [4] read?
The known effective dose was 0.017 mSv/MBq.

With `OCC1OC(OC2C(CO)OC(O)C([18F])C2O)C(O)C(O)C1O` (stereo not drawn) [[18F]FDM] as the compound, how does the target-to-nontarget ratio [1] read?
Its target-to-nontarget ratio is about 6 fold.

What does the source list for `OC[C@@H](O)[C@@H](O)[C@H](O)[C@@H]([18F])CO` [[18F]FDS, 2-deoxy-2-[18F]fluoro-D-sorbitol, reference compound]?
in vitro uptake [5]: accumulated; in vitro uptake in Gram-positive bacteria [2]: not taken up; area under the curve (AUC0→90min) in bladder ([6]; i.v.): 36165.8 ± 3961.5 % IDcc^–1·min; area under the curve (AUC0→90min) in liver ([6]; i.v.): 289.4 ± 21.3 % IDcc^–1·min; peak uptake (Cmax) in bladder ([6]; i.v., dynamic PET 90 min): 525.5 ± 37.0 % IDcc^–1; peak uptake (Cmax) in kidneys ([6]; i.v., dynamic PET 90 min): 71.3 ± 9.7 % IDcc^–1; peak uptake (Cmax) in liver ([6]; i.v., dynamic PET 90 min): 28.6 ± 5.0 % IDcc^–1; elimination half-life (T1/2β) [6, 9]: 18.74 min; plasma distribution half-life (T1/2α) [6, 9]: 0.43 min; ex vivo infected/uninfected lung ratio ([7]; ex vivo gamma counting after PET): ~1.6 fold; ROI-derived infected/uninfected lung ratio ([7]; in vivo PET, 80 min postinjection (mid time), 24 h after intranasal K. pneumoniae): approximately 3.2 fold

With `OC[C@@H](O)[C@@H](O)[C@H](O)[C@H]([18F])CO` [[18F]FMtl] as the compound, how does the target-to-nontarget ratio [1] read?
Its target-to-nontarget ratio is about 4 fold.

Which results are given for `OCC1OC(OC2C(O)C(CO)OC(O)C2[18F])C(O)C(O)C1O` (stereo not drawn) [[18F]FSK, reference compound]?
ratio of live/heat-killed S. aureus inoculated sites, in vivo ([8]; PET 80 min postinjection (mid time)): 28 fold; ratio of live/heat-killed S. aureus inoculated sites, ex vivo ([8]; ex vivo analysis): 17 fold; target-to-nontarget ratio [1]: ~7 fold

For `OCCOCc1ccc(-c2noc(-c3ccc(OCC[18F])c(C(F)(F)F)c3)n2)cc1` [[18F]TZ4877], which target-to-nontarget ratio [1] is on record?
Its target-to-nontarget ratio is about 1.3 fold.
